Results: the supplement of paper PMC5908809

How the values were obtained:
SNK-6 (IL-2 2.5 ng/mL) [1] = assay: drug sensitivity score (DSS) (DSS units); higher = more sensitive; extreme values may be limits of the assay; settings: 72 h
NK-92 (IL-2 2.5 ng/mL) [2] = assay: as above; settings: 72 h
[3] = test system: normal primary NK cells, pool 3 (3 donors) (IL-2 2.5 ng/mL); assay: as above; settings: 72 h
[4] = test system: normal primary NK cells, pool 1 (3 donors) (IL-2 2.5 ng/mL); assay: as above; settings: 72 h
NK-YS (IL-2 2.5 ng/mL) [5] = assay: as above; settings: 72 h
IMC-1 (IL-2 20 ng/mL) [6] = assay: as above; settings: 72 h
YT (IL-2 2.5 ng/mL) [7] = assay: as above; settings: 72 h
NKL (IL-2 2.5 ng/mL) [8] = assay: as above; settings: 72 h
DERL-7 (IL-2 2.5 ng/mL) [9] = assay: as above; settings: 72 h
[10] = test system: normal primary NK cells, pool 1 (3 donors), resting (IL-2 0 ng/mL); assay: as above; settings: 72 h
KAI3 (IL-2 2.5 ng/mL) [11] = assay: as above; settings: 72 h
[12] = test system: normal primary NK cells, pool 2 (3 donors) (IL-2 2.5 ng/mL); assay: as above; settings: 72 h
KHYG-1 (IL-2 2.5 ng/mL) [13] = assay: as above; settings: 72 h
[14] = test system: normal NK cells expanded with K562-aAPC; assay: as above; settings: 72 h; IL-2 2.5 ng/mL
Experimental: (§1)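 Drug sensitivity and resistance testing on K562-aAPC-expanded normal NK cells: 5 concentrations (10-fold steps over a 10,000-fold range), 72 h at 37 °C, viability by CellTiter-Glo normalised to DMSO and benzethonium chloride controls; DSS from the fitted curve.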

SNK-6 (IL-2 2.5 ng/mL) [15] = assay: percent inhibition of viability; higher = more inhibition; settings: 72 h
NK-92 (IL-2 2.5 ng/mL) [16] = assay: as above; settings: 72 h
[17] = test system: normal primary NK cells, pool 3 (3 donors) (IL-2 2.5 ng/mL); assay: as above; settings: 72 h
[18] = test system: normal primary NK cells, pool 1 (3 donors) (IL-2 2.5 ng/mL); assay: as above; settings: 72 h
NK-YS (IL-2 2.5 ng/mL) [19] = assay: as above; settings: 72 h
IMC-1 (IL-2 20 ng/mL) [20] = assay: as above; settings: 72 h
YT (IL-2 2.5 ng/mL) [21] = assay: as above; settings: 72 h
NKL (IL-2 2.5 ng/mL) [22] = assay: as above; settings: 72 h
DERL-7 (IL-2 2.5 ng/mL) [23] = assay: as above; settings: 72 h
[24] = test system: normal primary NK cells, pool 1 (3 donors), resting (IL-2 0 ng/mL); assay: as above; settings: 72 h
KAI3 (IL-2 2.5 ng/mL) [25] = assay: as above; settings: 72 h
[26] = test system: normal primary NK cells, pool 2 (3 donors) (IL-2 2.5 ng/mL); assay: as above; settings: 72 h
KHYG-1 (IL-2 2.5 ng/mL) [27] = assay: as above; settings: 72 h
[28] = test system: normal NK cells expanded with K562-aAPC; assay: as above; settings: 72 h, IL-2 2.5 ng/mL
Experimental: as §1

COc1cc2ncnc(Nc3ccc(F)c(Cl)c3)c2cc1NC(=O)/C=C/CN1CCCCC1 [Dacomitinib] (max concentration tested 1000 nM)
Settings | drug sensitivity score
DERL-7 (IL-2 2.5 ng/mL) [9] | 1.45
IMC-1 (IL-2 20 ng/mL) [6] | 0.74
KAI3 (IL-2 2.5 ng/mL) [11] | 2.88
KHYG-1 (IL-2 2.5 ng/mL) [13] | 0
NK-92 (IL-2 2.5 ng/mL) [2] | 0.79
NK-YS (IL-2 2.5 ng/mL) [5] | 1.38
NKL (IL-2 2.5 ng/mL) [8] | 8.95
SNK-6 (IL-2 2.5 ng/mL) [1] | 0.98
YT (IL-2 2.5 ng/mL) [7] | 0
[3] | 0.2
[4] | 0.77
[10] | 2.49
[12] | 1.25
[14] | 2.02

percent inhibition of viability [%]
Settings | 0.1 nM | 1 nM | 10 nM | 100 nM | 1000 nM
DERL-7 (IL-2 2.5 ng/mL) [23] | -5.58 | -2.85 | -0.73 | -3.8 | 35.9
IMC-1 (IL-2 20 ng/mL) [20] | 9.55 | 7.6 | 11.6 | 10.1 | 13.4
KAI3 (IL-2 2.5 ng/mL) [25] | 7.94 | 10.2 | 11.4 | 7.46 | 31.4
KHYG-1 (IL-2 2.5 ng/mL) [27] | 10.5 | 10.2 | 7.74 | 5.43 | 16.9
NK-92 (IL-2 2.5 ng/mL) [16] | 14.8 | 4.75 | 15.7 | -7.18 | 27.1
NK-YS (IL-2 2.5 ng/mL) [19] | 7.35 | 1.97 | 10.7 | 6.81 | 23.5
NKL (IL-2 2.5 ng/mL) [22] | 3.41 | 22.9 | 21.4 | 24.5 | 43.9
SNK-6 (IL-2 2.5 ng/mL) [15] | 6.36 | -3.37 | 6.76 | 1.63 | 22.4
YT (IL-2 2.5 ng/mL) [21] | 5.15 | 4.77 | 7.83 | 2.51 | 14.2
[17] | 0.64 | 1.31 | -1.6 | -10.6 | 17.6
[18] | 2.94 | -9.71 | -7.32 | -13.9 | 28.8
[24] | 4.51 | -7.96 | 0.41 | -14.9 | 59.7
[26] | -2.98 | -1.98 | 1.99 | -4.15 | 33
[28] | 4.92 | 5.66 | 5.66 | 10.2 | 29.5

Cc1nc(Nc2ncc(C(=O)Nc3c(C)cccc3Cl)s2)cc(N2CCN(CCO)CC2)n1 [Dasatinib] (max concentration tested 1000 nM)
Settings | drug sensitivity score
DERL-7 (IL-2 2.5 ng/mL) [9] | 1.68
IMC-1 (IL-2 20 ng/mL) [6] | 0
KAI3 (IL-2 2.5 ng/mL) [11] | 2.92
KHYG-1 (IL-2 2.5 ng/mL) [13] | 0.45
NK-92 (IL-2 2.5 ng/mL) [2] | 0.7
NK-YS (IL-2 2.5 ng/mL) [5] | 2.02
NKL (IL-2 2.5 ng/mL) [8] | 6.85
SNK-6 (IL-2 2.5 ng/mL) [1] | 2.07
YT (IL-2 2.5 ng/mL) [7] | 4.71
[3] | 0
[4] | 6.61
[10] | 0
[12] | 0
[14] | 1.3

percent inhibition of viability [%]
Settings | 0.1 nM | 1 nM | 10 nM | 100 nM | 1000 nM
DERL-7 (IL-2 2.5 ng/mL) [23] | 2.24 | 8.32 | 14.1 | 5.36 | 23.2
IMC-1 (IL-2 20 ng/mL) [20] | -4.24 | -3.41 | -7.41 | -6.36 | 8.01
KAI3 (IL-2 2.5 ng/mL) [25] | -0.36 | 1.21 | 4.62 | 14.5 | 34
KHYG-1 (IL-2 2.5 ng/mL) [27] | -4.78 | -5.41 | 2.42 | 4.68 | 15
NK-92 (IL-2 2.5 ng/mL) [16] | -15.2 | -20 | -16.4 | -1 | 22.6
NK-YS (IL-2 2.5 ng/mL) [19] | -0.77 | -3.69 | 1.85 | 9.09 | 26.2
NKL (IL-2 2.5 ng/mL) [22] | -6.62 | -1.79 | 12 | 30.8 | 50.2
SNK-6 (IL-2 2.5 ng/mL) [15] | 26.1 | -6.71 | -10.2 | 3.42 | 33.2
YT (IL-2 2.5 ng/mL) [21] | -6.9 | -3.71 | 0.56 | 23 | 39.6
[17] | 0.39 | 14.8 | -5.88 | -19.1 | -19.4
[18] | -0.11 | 19.3 | 13.1 | 15.4 | 19.5
[24] | -8.65 | 23.5 | 15.4 | 12.1 | 3.61
[26] | -3.84 | 18.3 | 1.6 | 0.44 | 6.62
[28] | -0.95 | 4.04 | 19.2 | 3.69 | 18.7
